Results reported in patent publication US11000033B2, “Ketone or oxime compound, and herbicide” (NISSAN CHEMICAL CORPORATION, priority 2014, dated 2021).

Key:
Format in all cases: in vivo
[1] = test system: Echinochloa crus-galli var. crus-galli; assay: Test Example 3: herbicidal effect by foliage application, Wagner pot (symbol H); details: application herbicide amount 320 g/ha
Outline: (§1)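 Scoring took place 3 weeks after application, using fixed criteria. Plants had been raised from seed for 14 days at 25 to 30 °C in submerged alluvial soil before a diluted emulsion of the test compound was sprayed uniformly on the leaves.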

[2] = test system: Lolium multiflorum Lam.; assay: Test Example 4: herbicidal effect by soil treatment (symbol K); details: application herbicide amount 320 g/ha
Outline: (§2)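 Seeds were sown in sterilized diluvial soil, covered with about 1.5 cm of soil, and the soil surface was sprayed with a water-diluted emulsion of the compound at a predetermined rate. Plants grew in a greenhouse at 25° C. to 30° C.; effects were scored visually 3 weeks after application.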

[3] = test system: Abutilon theophrasti; assay: Test Example 5: herbicidal effect by foliage application, plastic box (symbol M); details: 320 g/ha, 3 weeks after application
Outline: (§3)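 Leaf-applied emulsion, water-diluted to a preset herbicide dose, on two-week-old seedlings raised in a 25° C. to 30° C. greenhouse; injury rated at 3 weeks using earlier criteria.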

[4] = test system: Avena fatua; assay: Test Example 5: herbicidal effect by foliage application, plastic box (symbol I); details: 320 g/ha, 3 weeks after application
Outline: as §3

[5] = test system: Leptochloa chinensis; assay: Test Example 3: herbicidal effect by foliage application, Wagner pot (symbol D); details: application herbicide amount 320 g/ha
Outline: as §1

[6] = test system: rapeseed; assay: Test Example 5: effect on crop by foliage application, plastic box (symbol g); details: 320 g/ha, 3 weeks after application
Outline: (§4)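 Greenhouse culture at 25° C. to 30° C. followed spot-like sowing into sterilized diluvial soil, with seed covered by roughly 1.5 cm of soil.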

[7] = test system: Apera spica-venti; assay: Test Example 4: herbicidal effect by soil treatment (symbol L); details: application herbicide amount 320 g/ha
Outline: as §2

[8] = test system: Setaria viridis; assay: Test Example 4: herbicidal effect by soil treatment (symbol G); details: application herbicide amount 320 g/ha
Outline: as §2

[9] = test system: Echinochloa crus-galli var. crus-galli; assay: Test Example 5: herbicidal effect by foliage application, plastic box (symbol H); details: 320 g/ha, 3 weeks after application
Outline: as §3

[10] = test system: transplanted rice plant; assay: Test Example 1: effect on crop, application before weed generation in submerged conditions (symbol a); details: application herbicide amount 320 g/ha
Outline: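 Rice at 2.5 leaf stage transplanted into submerged soil (4 cm depth) sown with three weed species; herbicide applied before weed emergence.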

[11] = test system: Abutilon theophrasti; assay: Test Example 4: herbicidal effect by soil treatment (symbol M); details: application herbicide amount 320 g/ha
Outline: as §2

[12] = test system: beet; assay: Test Example 5: effect on crop by foliage application, plastic box (symbol f); details: 320 g/ha, 3 weeks after application
Outline: as §4

[13] = test system: Setaria viridis; assay: Test Example 5: herbicidal effect by foliage application, plastic box (symbol G); details: 320 g/ha, 3 weeks after application
Outline: as §3

[14] = test system: directly sowed rice plant; assay: Test Example 3: effect on crop by foliage application, Wagner pot (symbol b); details: application herbicide amount 320 g/ha
Outline: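 Plants are raised from seed in flooded paddy conditions: water stands 0.1–0.5 cm over alluvial soil, and the pot is kept in a greenhouse at 25–30 °C. Species sown are barnyardgrass (E. crus-galli var. crus-galli), Leptochloa chinensis, Cyperus difformis and rice.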

[15] = test system: Digitaria ciliaris; assay: Test Example 4: herbicidal effect by soil treatment (symbol F); details: application herbicide amount 320 g/ha
Outline: as §2

[16] = test system: Apera spica-venti; assay: Test Example 5: herbicidal effect by foliage application, plastic box (symbol L); details: 320 g/ha, 3 weeks after application
Outline: as §3

[17] = test system: Amaranthus retroflexus; assay: Test Example 4: herbicidal effect by soil treatment (symbol N); details: application herbicide amount 320 g/ha
Outline: as §2

[18] = test system: rice plant; assay: Test Example 5: effect on crop by foliage application, plastic box (symbol b); details: 320 g/ha, 3 weeks after application
Outline: as §4

[19] = test system: Stellaria media; assay: Test Example 5: herbicidal effect by foliage application, plastic box (symbol P); details: 320 g/ha, 3 weeks after application
Outline: as §3

| SMILES | herbicidal effect on H (Echinochloa crus-galli var. crus-galli), grade 0-5 [1] | K (Lolium multiflorum Lam.) herbicidal effect grade [2] | M: Abutilon theophrasti, herbicidal effect grade [3] | I: Avena fatua, herbicidal effect grade [4] | herbicidal effect on D (Leptochloa chinensis), grade 0-5 [5] | g: rapeseed, effect on crop grade [6] | L (Apera spica-venti) herbicidal effect grade [7] | G (Setaria viridis) herbicidal effect grade [8] | H: Echinochloa crus-galli var. crus-galli, herbicidal effect grade [9] | Effect grade on crop, a: transplanted rice plant [10] | M (Abutilon theophrasti) herbicidal effect grade [11] | f: beet, effect on crop grade [12] | G: Setaria viridis, herbicidal effect grade [13] | effect on crop b (directly sowed rice plant), grade 0-5 [14] | F (Digitaria ciliaris) herbicidal effect grade [15] | L: Apera spica-venti, herbicidal effect grade [16] | N (Amaranthus retroflexus) herbicidal effect grade [17] | b: directly sowed rice plant, effect on crop grade [18] | P: Stellaria media, herbicidal effect grade [19] |
| --- | --- | --- | --- | --- | --- | --- | --- | --- | --- | --- | --- | --- | --- | --- | --- | --- | --- | --- | --- |
| CON=C(C)CC1CC(OC(=O)C(C)(C)CCl)=C(c2c(C)cc(C)cc2C)C1=O (centres unmarked) [1-016] | 5 (Herbicidal ratio of 90% or more (almost completely withered)) | 5 (Herbicidal ratio of 90% or more (almost completely withered)) | 4 (Herbicidal ratio of 70% or higher and lower than 90%) | 5 (Herbicidal ratio of 90% or more (almost completely withered)) | 5 (Herbicidal ratio of 90% or more (almost completely withered)) | 4 (Herbicidal ratio of 70% or higher and lower than 90%) | 5 (Herbicidal ratio of 90% or more (almost completely withered)) | 3 (Herbicidal ratio of 40% or higher and lower than 70%) | 5 (Herbicidal ratio of 90% or more (almost completely withered)) | 5 (Herbicidal ratio of 90% or more (almost completely withered)) | 5 (Herbicidal ratio of 90% or more (almost completely withered)) | 3 (Herbicidal ratio of 40% or higher and lower than 70%) | 5 (Herbicidal ratio of 90% or more (almost completely withered)) | 5 (Herbicidal ratio of 90% or more (almost completely withered)) | 5 (Herbicidal ratio of 90% or more (almost completely withered)) | 5 (Herbicidal ratio of 90% or more (almost completely withered)) | 5 (Herbicidal ratio of 90% or more (almost completely withered)) | 5 (Herbicidal ratio of 90% or more (almost completely withered)) |  |
| CON=C(C)CC1CC(OC(=O)C(C)(C)Oc2ccccc2)=C(c2c(C)cc(C)cc2C)C1=O (centres unmarked) [1-017] | 5 (Herbicidal ratio of 90% or more (almost completely withered)) | 5 (Herbicidal ratio of 90% or more (almost completely withered)) | 4 (Herbicidal ratio of 70% or higher and lower than 90%) | 5 (Herbicidal ratio of 90% or more (almost completely withered)) | 5 (Herbicidal ratio of 90% or more (almost completely withered)) | 4 (Herbicidal ratio of 70% or higher and lower than 90%) | 5 (Herbicidal ratio of 90% or more (almost completely withered)) | 5 (Herbicidal ratio of 90% or more (almost completely withered)) | 5 (Herbicidal ratio of 90% or more (almost completely withered)) | 5 (Herbicidal ratio of 90% or more (almost completely withered)) | 5 (Herbicidal ratio of 90% or more (almost completely withered)) | 2 (Herbicidal ratio of 20% or higher and lower than 40%) | 5 (Herbicidal ratio of 90% or more (almost completely withered)) | 5 (Herbicidal ratio of 90% or more (almost completely withered)) | 5 (Herbicidal ratio of 90% or more (almost completely withered)) | 5 (Herbicidal ratio of 90% or more (almost completely withered)) | 5 (Herbicidal ratio of 90% or more (almost completely withered)) | 5 (Herbicidal ratio of 90% or more (almost completely withered)) |  |
| C=CCON=C(C)CC1CC(O)=C(c2c(C)cc(C)cc2C)C1=O (centres unmarked) [1-018] | 5 (Herbicidal ratio of 90% or more (almost completely withered)) | 5 (Herbicidal ratio of 90% or more (almost completely withered)) | 3 (Herbicidal ratio of 40% or higher and lower than 70%) | 5 (Herbicidal ratio of 90% or more (almost completely withered)) | 5 (Herbicidal ratio of 90% or more (almost completely withered)) | 4 (Herbicidal ratio of 70% or higher and lower than 90%) | 5 (Herbicidal ratio of 90% or more (almost completely withered)) | 3 (Herbicidal ratio of 40% or higher and lower than 70%) | 5 (Herbicidal ratio of 90% or more (almost completely withered)) | 5 (Herbicidal ratio of 90% or more (almost completely withered)) | 4 (Herbicidal ratio of 70% or higher and lower than 90%) | 4 (Herbicidal ratio of 70% or higher and lower than 90%) | 5 (Herbicidal ratio of 90% or more (almost completely withered)) | 5 (Herbicidal ratio of 90% or more (almost completely withered)) | 5 (Herbicidal ratio of 90% or more (almost completely withered)) | 5 (Herbicidal ratio of 90% or more (almost completely withered)) | 2 (Herbicidal ratio of 20% or higher and lower than 40%) | 5 (Herbicidal ratio of 90% or more (almost completely withered)) | 4 (Herbicidal ratio of 70% or higher and lower than 90%) |
| C#CCON=C(C)CC1CC(O)=C(c2c(C)cc(C)cc2C)C1=O (centres unmarked) [1-019] | 5 (Herbicidal ratio of 90% or more (almost completely withered)) | 5 (Herbicidal ratio of 90% or more (almost completely withered)) | 4 (Herbicidal ratio of 70% or higher and lower than 90%) | 5 (Herbicidal ratio of 90% or more (almost completely withered)) | 5 (Herbicidal ratio of 90% or more (almost completely withered)) | 4 (Herbicidal ratio of 70% or higher and lower than 90%) | 5 (Herbicidal ratio of 90% or more (almost completely withered)) | 3 (Herbicidal ratio of 40% or higher and lower than 70%) | 5 (Herbicidal ratio of 90% or more (almost completely withered)) | 5 (Herbicidal ratio of 90% or more (almost completely withered)) | 4 (Herbicidal ratio of 70% or higher and lower than 90%) | 4 (Herbicidal ratio of 70% or higher and lower than 90%) | 5 (Herbicidal ratio of 90% or more (almost completely withered)) | 5 (Herbicidal ratio of 90% or more (almost completely withered)) | 5 (Herbicidal ratio of 90% or more (almost completely withered)) | 5 (Herbicidal ratio of 90% or more (almost completely withered)) | 3 (Herbicidal ratio of 40% or higher and lower than 70%) | 5 (Herbicidal ratio of 90% or more (almost completely withered)) | 4 (Herbicidal ratio of 70% or higher and lower than 90%) |
